From patent US8927717B1, “Thiochromeno[2,3-c]quinolin-12-one derivatives, preparation method and application thereof” (National Defense Medical Center, priority 2014, dated 2015)

Legend:
Format in all cases: cell-based
HL-60(TB) = conditions: Leukemia; 10^−5 molar; 48 hours; SRB
K-562 = conditions: Leukemia; 10^−5 molar; 48 hours; SRB
MOLT-4 = conditions: Leukemia; 10^−5 molar; 48 hours; SRB
RPMI-8226 = conditions: Leukemia; 10^−5 molar; 48 hours; SRB
SR = conditions: Leukemia; 10^−5 molar; 48 hours; SRB
HOP-62 = conditions: Non-small cell lung cancer; 10^−5 molar; 48 hours; SRB
NCI-H226 = conditions: Non-small cell lung cancer; 10^−5 molar; 48 hours; SRB
NCI-H23 = conditions: Non-small cell lung cancer; 10^−5 molar; 48 hours; SRB
NCI-H460 = conditions: Non-small cell lung cancer; 10^−5 molar; 48 hours; SRB
NCI-H522 = conditions: Non-small cell lung cancer; 10^−5 molar; 48 hours; SRB
COLO 205 = conditions: Colon cancer; 10^−5 molar; 48 hours; SRB
HCT-116 = conditions: Colon cancer; 10^−5 molar; 48 hours; SRB
HT29 = conditions: Colon cancer; 10^−5 molar; 48 hours; SRB
KM12 = assay: cells; conditions: Colon cancer; 10^−5 molar; 48 hours; SRB
SW-620 = conditions: Colon cancer; 10^−5 molar; 48 hours; SRB
SF-268 = conditions: CNS cancer; 10^−5 molar; 48 hours; SRB
SNB-19 = conditions: CNS cancer; 10^−5 molar; 48 hours; SRB
U251 = conditions: CNS cancer; 10^−5 molar; 48 hours; SRB
LOX IMVI = conditions: Melanoma; 10^−5 molar; 48 hours; SRB
MALME-3M = conditions: Melanoma; 10^−5 molar; 48 hours; SRB
M14 = conditions: Melanoma; 10^−5 molar; 48 hours; SRB
MDA-MB-435 = conditions: Melanoma; 10^−5 molar; 48 hours; SRB
SK-MEL-28 = conditions: Melanoma; 10^−5 molar; 48 hours; SRB
SK-MEL-5 = conditions: Melanoma; 10^−5 molar; 48 hours; SRB
UACC-62 = conditions: Melanoma; 10^−5 molar; 48 hours; SRB
OVCAR-8 = conditions: Ovarian cancer; 10^−5 molar; 48 hours; SRB
NCI/ADR-RES = conditions: Ovarian cancer; 10^−5 molar; 48 hours; SRB
SK-OV-3 = conditions: Ovarian cancer; 10^−5 molar; 48 hours; SRB
786-0 = conditions: Renal cancer; 10^−5 molar; 48 hours; SRB
A498 = conditions: Renal cancer; 10^−5 molar; 48 hours; SRB
ACHN = conditions: Renal cancer; 10^−5 molar; 48 hours; SRB
RXF 393 = conditions: Renal cancer; 10^−5 molar; 48 hours; SRB
TK-10 = conditions: Renal cancer; 10^−5 molar; 48 hours; SRB
PC-3 = conditions: Prostate cancer; 10^−5 molar; 48 hours; SRB
MCF7 = conditions: Breast cancer; 10^−5 molar; 48 hours; SRB
MDA-MB-231/ATCC = conditions: Breast cancer; 10^−5 molar; 48 hours; SRB
T-47D = conditions: Breast cancer; 10^−5 molar; 48 hours; SRB
MDA-MB-486 = conditions: Breast cancer; 10^−5 molar; 48 hours; SRB
60 cancer cell lines = assay: NCI 60-cell screen, SRB, whole panel (mean, delta, range); conditions: 10^−5 molar, 48 hours, SRB; for Growth percent, Delta: delta over the cell panel; for Growth percent, Mean: mean over the cell panel; for Growth percent, Range: range over the cell panel

## O=c1c2cc(Cl)ccc2sc2c(NCCO)nc3ccccc3c12 [Compound N9, 10-Chloro-6-(2-ethanolamino)-12H-thiochromeno[2,3-c]quinolin-12-one]
HL-60(TB)
  Growth percent HL-60(TB): 104.58%
K-562
  Growth percent K-562: 68.23%
MOLT-4
  Growth percent MOLT-4: 78.76%
RPMI-8226
  Growth percent RPMI-8226: 83.81%
SR
  Growth percent SR: 60.44%
HOP-62
  Growth percent HOP-62: 81.90%
NCI-H226
  Growth percent NCI-H226: 83.55%
NCI-H23
  Growth percent NCI-H23: 86.06%
NCI-H460
  Growth percent NCI-H460: 100.97%
NCI-H522
  Growth percent NCI-H522: 76.94%
COLO 205
  Growth percent COLO 205: 99.13%
HCT-116
  Growth percent HCT-116: 93.62%
HT29
  Growth percent HT29: 87.36%
KM12
  Growth percent KM12: 91.93%
SW-620
  Growth percent SW-620: 97.18%
SF-268
  Growth percent SF-268: 95.06%
SNB-19
  Growth percent SNB-19: 90.96%
U251
  Growth percent U251: 84.10%
LOX IMVI
  Growth percent LOX IMVI: 86.96%
MALME-3M
  Growth percent MALME-3M: 104.86%
M14
  Growth percent M14: 107.09%
MDA-MB-435
  Growth percent MDA-MB-435: 94.98%
SK-MEL-28
  Growth percent SK-MEL-28: 100.76%
SK-MEL-5
  Growth percent SK-MEL-5: 97.36%
UACC-62
  Growth percent UACC-62: 76.52%
OVCAR-8
  Growth percent OVCAR-8: 78.13%
NCI/ADR-RES
  Growth percent NCI/ADR-RES: 91.54%
SK-OV-3
  Growth percent SK-OV-3: 104.57%
786-0
  Growth percent 786-0: 104.43%
A498
  Growth percent A498: 65.78%
ACHN
  Growth percent ACHN: 82.25%
RXF 393
  Growth percent RXF 393: 92.81%
TK-10
  Growth percent TK-10: 78.14%
PC-3
  Growth percent PC-3: 71.70%
MCF7
  Growth percent MCF7 (Table 2: MCF): 29.66%
MDA-MB-231/ATCC
  Growth percent MDA-MB-231/ATCC: 66.62%
T-47D
  Growth percent T-47D: 74.45%
MDA-MB-486
  Growth percent MDA-MB-486: 39.59%
60 cancer cell lines
  Growth percent, Delta: 56.67%
  Growth percent, Mean: 86.33%
  Growth percent, Range: 101.96%

## CC(C)CC(C)Nc1nc2ccccc2c2c(=O)c3cc(Cl)ccc3sc12 (stereo not shown) [Compound N13, 10-Chloro-6-((4-methylpentan-2-yl)amino)-12H-thiochromeno[2,3-c]quinolin-12-one]
HL-60(TB)
  Growth percent HL-60(TB): 103.96%
K-562
  Growth percent K-562: 106.64%
MOLT-4
  Growth percent MOLT-4: 93.68%
RPMI-8226
  Growth percent RPMI-8226: 97.78%
SR
  Growth percent SR: 97.29%
HOP-62
  Growth percent HOP-62: 88.69%
NCI-H226
  Growth percent NCI-H226: 87.55%
NCI-H23
  Growth percent NCI-H23: 95.10%
NCI-H460
  Growth percent NCI-H460: 95.17%
NCI-H522
  Growth percent NCI-H522: 102.30%
COLO 205
  Growth percent COLO 205: 93.45%
HCT-116
  Growth percent HCT-116: 90.30%
HT29
  Growth percent HT29: 121.02%
KM12
  Growth percent KM12: 105.66%
SW-620
  Growth percent SW-620: 92.80%
SF-268
  Growth percent SF-268: 105.52%
SNB-19
  Growth percent SNB-19: 106.79%
U251
  Growth percent U251: 105.12%
LOX IMVI
  Growth percent LOX IMVI: 98.90%
MALME-3M
  Growth percent MALME-3M: 95.93%
M14
  Growth percent M14: 94.27%
MDA-MB-435
  Growth percent MDA-MB-435: 108.08%
SK-MEL-28
  Growth percent SK-MEL-28: 106.87%
SK-MEL-5
  Growth percent SK-MEL-5: 90.71%
UACC-62
  Growth percent UACC-62: 96.09%
OVCAR-8
  Growth percent OVCAR-8: 92.79%
NCI/ADR-RES
  Growth percent NCI/ADR-RES: 98.47%
SK-OV-3
  Growth percent SK-OV-3: 86.70%
786-0
  Growth percent 786-0: 99.74%
A498
  Growth percent A498: 75.01%
ACHN
  Growth percent ACHN: 91.24%
RXF 393
  Growth percent RXF 393: 98.67%
TK-10
  Growth percent TK-10: 123.23%
PC-3
  Growth percent PC-3: 86.33%
MCF7
  Growth percent MCF7 (Table 2: MCF): 73.82%
MDA-MB-231/ATCC
  Growth percent MDA-MB-231/ATCC: 84.22%
T-47D
  Growth percent T-47D: 73.76%
MDA-MB-486
  Growth percent MDA-MB-486: 96.02%
60 cancer cell lines
  Growth percent, Delta: 22.57%
  Growth percent, Mean: 96.33%
  Growth percent, Range: 49.47%
